Assays:
Settings in all cases: 72 h
[1] = tested on: Calu-3; assay: cell viability relative to DMSO; higher = less toxic
[2] = tested on: HepG2; assay: as above
[3] = tested on: Caco-2; assay: as above
[4] = tested on: U2OS; assay: as above
[5] = tested on: Calu-3; assay: relative viability EC50 (midpoint between 100% and the lowest measured viability); higher = less toxic
[6] = tested on: HepG2; assay: as above
[7] = tested on: Caco-2; assay: as above
[8] = tested on: U2OS; assay: as above
[9] = tested on: Calu-3; assay: drug sensitivity score (DSS) for viability; higher = more toxic; extreme values may be limits of the assay
[10] = tested on: HepG2; assay: as above
[11] = tested on: Caco-2; assay: as above
[12] = tested on: U2OS; assay: as above
[13] = tested on: Vero E6; assay: cell viability relative to DMSO; higher = less toxic
[14] = tested on: Vero E6; assay: relative viability EC50 (midpoint between 100% and the lowest measured viability); higher = less toxic
[15] = tested on: Vero E6; assay: drug sensitivity score (DSS) for viability; higher = more toxic; extreme values may be limits of the assay

| SMILES | cell viability ([1]; 1 nM) [%] | cell viability ([1]; 10 nM) [%] | cell viability ([1]; 100 nM) [%] | cell viability ([1]; 1000 nM) [%] | cell viability ([1]; 10000 nM) [%] | cell viability ([2]; 1 nM) [%] | cell viability ([2]; 10 nM) [%] | cell viability ([2]; 100 nM) [%] | cell viability ([2]; 1000 nM) [%] | cell viability ([2]; 10000 nM) [%] | cell viability ([3]; 1 nM) [%] | cell viability ([3]; 10 nM) [%] | cell viability ([3]; 100 nM) [%] | cell viability ([3]; 1000 nM) [%] | cell viability ([3]; 10000 nM) [%] | cell viability ([4]; 1 nM) [%] | cell viability ([4]; 10 nM) [%] | cell viability ([4]; 100 nM) [%] | cell viability ([4]; 1000 nM) [%] | cell viability ([4]; 10000 nM) [%] | relative viability EC50 [5] [µM] | relative viability EC50 [6] [µM] | relative viability EC50 [7] [µM] | relative viability EC50 [8] [µM] | drug sensitivity score [9] | drug sensitivity score [10] | drug sensitivity score [11] | drug sensitivity score [12] | cell viability ([13]; 1 nM) [%] | cell viability ([13]; 10 nM) [%] | cell viability ([13]; 100 nM) [%] | cell viability ([13]; 1000 nM) [%] | cell viability ([13]; 10000 nM) [%] | relative viability EC50 [14] [µM] | drug sensitivity score [15] |
| --- | --- | --- | --- | --- | --- | --- | --- | --- | --- | --- | --- | --- | --- | --- | --- | --- | --- | --- | --- | --- | --- | --- | --- | --- | --- | --- | --- | --- | --- | --- | --- | --- | --- | --- | --- |
| C[C@H](N)C(=O)N[C@@]1(C(=O)O)C[C@@H](Sc2nnc[nH]2)[C@H]2[C@H](C(=O)O)[C@H]21 | 102 | 92.6 | 96.1 | 114 | 110 | 101 | 94.7 | 99.6 | 110 | 91 | 108 | 100 | 103 | 98.9 | 101 | 105 | 96.9 | 105 | 100 | 104 | > 10 | > 10 | > 10 | > 10 | 0 | 0 | 0 | 0 |  |  |  |  |  |  |  |
| Cc1cc(C)c(CNC(=O)c2cc(-c3ccc(CN4CCOCC4)cc3)cc3c2cnn3C2CCCC2)c(=O)[nH]1 | 98 | 96.9 | 104 | 92 | 96.3 | 108 | 102 | 100 | 97.3 | 85.3 | 102 | 94.2 | 96.4 | 91.1 | 92 | 99 | 94.5 | 101 | 94.4 | 98.7 | > 10 | > 10 | > 10 | > 10 | 0 | 0.5 | 0 | 0 |  |  |  |  |  |  |  |
| Cc1cc(C)c(N)c(C#Cc2cccc(F)c2)n1 | 104 | 102 | 95.9 | 102 | 87.7 | 95.3 | 98.4 | 81.6 | 88.1 | 90.7 | 99.6 | 88.9 | 101 | 93.2 | 71.6 | 102 | 97.5 | 102 | 97.3 | 90.9 | > 10 | > 10 |  | > 10 | 0 | 0.7 | 2.2 | 0 | 99.5 | 106 | 98.6 | 103 | 90.8 | > 10 | 0 |
| Cc1cnc(NC(=O)Nc2cc(Br)c(C)cc2OC[C@@H]2CNCCO2)cn1 | 90.7 | 106 | 102 | 76.9 | 63 | 106 | 104 | 97.9 | 59.1 | 33.7 | 102 | 94.7 | 96.9 | 87.5 | 37.8 | 100 | 99.2 | 98 | 62.2 | 4.8 |  | 0.764 | 1.73 | 1.2 | 4.5 | 8.6 | 5.4 | 10.2 | 101 | 105 | 102 | 97.2 | 71.1 |  | 1.7 |
| Cc1nc2ccc(-n3ncc(C(=O)c4cc5ccccc5[nH]4)c3N)cc2[nH]1 | 100 | 86.9 | 98.4 | 87.6 | 84.7 | 94.6 | 99 | 87.3 | 104 | 76.2 | 100 | 94.5 | 92.9 | 86.4 | 89.3 | 99 | 94.5 | 97.8 | 84.1 | 84.3 | > 10 | > 10 | > 10 | > 10 | 0.7 | 0.7 | 0.8 | 1.9 | 96.5 | 96 | 93.6 | 89.4 | 69 |  | 2.2 |
| Nc1nc(NCCc2ccc(O)cc2)nc2nc(-c3ccco3)nn12 | 96.1 | 110 | 97.3 | 98.2 | 106 | 109 | 98.6 | 103 | 49.2 | 32.2 | 97.2 | 94.5 | 103 | 104 | 72.5 | 99.5 | 103 | 102 | 103 | 94.5 | > 10 | 0.648 |  | > 10 | 0 | 9.7 | 0.9 | 0 | 95.1 | 95.3 | 98.1 | 94.6 | 95 | > 10 | 0 |
| FC(F)(F)Oc1ccc2nc(-c3ccc(OCCOCCOc4ccc(-c5nc6ccc(OC(F)(F)F)cc6[nH]5)nc4)cn3)[nH]c2c1 [AI-10-49] | 109 | 95.7 | 98.2 | 98.3 | 93.3 | 94.7 | 93.6 | 103 | 74.6 | 18.7 | 95.2 | 95.4 | 90.9 | 82 | 56.7 | 98.5 | 98.6 | 101 | 90.5 | 80.7 | > 10 | 1.37 |  | > 10 | 0 | 8.2 | 4.2 | 1.5 | 102 | 97 | 93.3 | 72.8 | 56.2 |  | 5.6 |

From the supplement of paper PMC13380429
